# Laboratory results as given in patent publication US20240417410A1, “TRICYCLIC COMPOUNDS FOR THE TREATMENT OF CANCER” (Hoffmann-La Roche Inc., priority 2023, published 2024).
# pIC50: −log10 of the molar value.
# Experiments:
# KRAS G12C-BRAF complex = KRAS G12C-BRAF complex (Homo sapiens (Human), UniProt P01116+P62937, G12C); assay: KRAS-BRAF with CYPA (500 nM) interaction assay (TR-FRET, Example 136); format: biochemical; details: KRAS G12C-BRAF disruption
# [1] = test system: NCI-H358 cells (KRAS G12C); assay: Cell viability assay (Cell Counting Kit-8, 3-day); format: cell-based, human; details: Homo sapiens, NCI-H358, 72 h, NCI-H358, 72 hrs incubation
# Method in brief: (§1)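 Cells were seeded at 5,000 cells/well (NCI-H358) or 2,000 cells/well (AGS, SW620), incubated overnight, then treated with compounds in 0.5% DMSO final for 72 hrs. CCK-8 was added and OD450 minus OD650 read after 2 hrs; IC50 came from a 4-parameter sigmoidal fit.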
# AGS cells (KRAS G12D) = assay: Cell viability assay (Cell Counting Kit-8, 3-day); format: cell-based, human; details: Homo sapiens, 72 h, 72 hrs incubation
# Method in brief: as §1
# SW620 cells (KRAS G12V) = assay: Cell viability assay (Cell Counting Kit-8, 3-day); format: cell-based, human; details: Homo sapiens, SW-620; SW620, 72 hrs incubation
# Method in brief: as §1
# [2] = test system: phosphorylation of ERK, KRAS G12V in SW620; assay: pERK inhibition assay; format: cell-based; details: Homo sapiens, SW-620, 4 h, SW620 cells
# Method in brief: (§2)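 Phospho-ERK quantified by in-cell ELISA with TMB read-out at OD450 following 4 h compound exposure (final 0.5% DMSO). Cell lines were SW620 (KRAS G12V), AGS (G12D) and NCI-H358 (G12C), grown in RPMI-1640 with 10% FBS. A 4-parameter sigmoidal model gave the IC50.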
# [3] = test system: phosphorylation of ERK, KRAS G12D in AGS cells; assay: pERK inhibition assay; format: cell-based; details: Homo sapiens, AGS, 4 h
# Method in brief: as §2
# [4] = test system: phosphorylation of ERK, KRAS G12C in NCI-H358 cells; assay: pERK inhibition assay; format: cell-based; details: Homo sapiens, NCI-H358, 4 h
# Method in brief: as §2
# Chain of KRAS G12C-BRAF complex (P01116-2 other isoform, or with tags, fused parts or gaps G12C): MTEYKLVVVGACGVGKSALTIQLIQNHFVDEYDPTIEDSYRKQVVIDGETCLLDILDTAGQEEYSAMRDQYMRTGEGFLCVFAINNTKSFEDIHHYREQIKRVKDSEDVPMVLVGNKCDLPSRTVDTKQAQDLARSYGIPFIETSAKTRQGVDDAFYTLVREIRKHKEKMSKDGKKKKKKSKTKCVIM
# Chain of KRAS G12C-BRAF complex (P62937 whole entry): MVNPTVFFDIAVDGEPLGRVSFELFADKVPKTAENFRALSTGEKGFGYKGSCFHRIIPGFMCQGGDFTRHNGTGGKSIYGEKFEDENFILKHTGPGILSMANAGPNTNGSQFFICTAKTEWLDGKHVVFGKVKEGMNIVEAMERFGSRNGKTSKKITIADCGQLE
SMILES,pIC50 (KRAS G12C-BRAF complex),pIC50 [1],pIC50 (AGS cells (KRAS G12D)),pIC50 (SW620 cells (KRAS G12V)),pIC50 [2],pIC50 [3],pIC50 [4]
"COCCN1CCN(c2cnc([C@H](C)OC)c(-c3c4c5cc(cc6c5n3CCC6)-c3csc(n3)C[C@H](NC(=O)[C@H]3[C@H](C)[C@@H]3C)C(=O)N3CCC[C@H](N3)C(=O)OCC(C)(C)C4)c2)CC1 (atropisomer, axis not shown; (M)) [Example 115, (1r,2S,3R)-N-[(7S,13S)-(20M)-20-[2-[(1S)-1-methoxyethyl]-5-[4-(2-methoxyethyl)piperazin-1-yl]-3-pyridyl]-17,17-dimethyl-8,14-dioxo-15-oxa-4-thia-9,21,30,31-tetrazahexacyclo[23.3.1.1^2,5.1^9,13.0^19,27.0^21,26]hentriaconta-1 (28),2,5 (31), 19,25 (29),26-hexaen-7-yl]-2,3-dimethyl-cyclopropanecarboxamide]",7.73,8.77,8.47,9.40,9.70,8.59,9.10
"CO[C@@H](C)c1ncc(N2CCN(C)CC2)cc1-c1c2c3cc(cc4c3n1CCC4)-c1csc(n1)C[C@H](NC(=O)[C@@H]1C[C@H]1c1cccnc1C)C(=O)N1CCC[C@H](N1)C(=O)OCC(C)(C)C2 (atropisomer, axis not shown; (M)) [Example 116, (1R,2R)-N-[(7S,13S)-(20M)-20-[2-[(1S)-1-methoxyethyl]-5-(4-methylpiperazin-1-yl)-3-pyridyl]-17,17-dimethyl-8,14-dioxo-15-oxa-4-thia-9,21,30,31-tetrazahexacyclo[23.3.1.1^2,5.1^9,13.0^19,27.0^21,26]hentriaconta-1 (28),2,5 (31), 19,25 (29),26-hexaen-7-yl]-2-(2-methyl-3-pyridyl)cyclopropanecarboxamide]",7.69,8.85,8.46,9.30,9.15,8.34,9.10
"CO[C@@H](C)c1ncc(N2CCN(C3CCOCC3)CC2)cc1-c1c2c3cc(cc4c3n1CCC4)-c1csc(n1)C[C@H](NC(=O)[C@H]1[C@H](C)[C@@H]1C)C(=O)N1CCC[C@H](N1)C(=O)OCC(C)(C)C2 (atropisomer, axis not shown; (M)) [Example 117, (1r,2R,3S)-N-[(7S,13S)-(20M)-20-[2-[(1S)-1-methoxyethyl]-5-(4-tetrahydropyran-4-ylpiperazin-1-yl)-3-pyridyl]-17,17-dimethyl-8,14-dioxo-15-oxa-4-thia-9,21,30,31-tetrazahexacyclo[23.3.1.1^2,5.1^9,13.0^19,27.0^21,26]hentriaconta-1 (28),2,5 (31), 19,25 (29),26-hexaen-7-yl]-2,3-dimethyl-cyclopropanecarboxamide]",7.80,8.82,8.60,9.70,9.52,8.39,9.15
"CO[C@@H](C)c1ncc(N2CCN(C3COC3)CC2)cc1-c1c2c3cc(cc4c3n1CCC4)-c1csc(n1)C[C@H](NC(=O)[C@H]1[C@H](C)[C@@H]1C)C(=O)N1CCC[C@H](N1)C(=O)OCC(C)(C)C2 (atropisomer, axis not shown; (M)) [Example 118, (1r,2R,3S)-N-[(7S,13S)-(20M)-20-[2-[(1S)-1-methoxyethyl]-5-[4-(oxetan-3-yl)piperazin-1-yl]-3-pyridyl]-17,17-dimethyl-8,14-dioxo-15-oxa-4-thia-9,21,30,31-tetrazahexacyclo[23.3.1.1^2,5.1^9,13.0^19,27.0^21,26]hentriaconta-1 (28),2,5 (31), 19,25 (29),26-hexaen-7-yl]-2,3-dimethyl-cyclopropanecarboxamide]",7.87,8.96,8.89,9.70,9.52,8.46,9.15
"CO[C@@H](C)c1ncc(N2CCN(C[C@@H]3CNCCO3)CC2)cc1-c1c2c3cc(cc4c3n1CCC4)-c1csc(n1)C[C@H](NC(=O)[C@H]1[C@H](C)[C@@H]1C)C(=O)N1CCC[C@H](N1)C(=O)OCC(C)(C)C2 (atropisomer, axis not shown; (M)) [Example 119, (1r,2S,3R)-N-[(7S,13S)-(20M)-20-[2-[(1S)-1-methoxyethyl]-5-[4-[[(2S)-morpholin-2-yl]methyl]piperazin-1-yl]-3-pyridyl]-17,17-dimethyl-8,14-dioxo-15-oxa-4-thia-9,21,30,31-tetrazahexacyclo[23.3.1.1^2,5.1^9,13.0^19,27.0^21,26]hentriaconta-1 (28),2,5 (31),19,25 (29),26-hexaen-7-yl]-2,3-dimethyl-cyclopropanecarboxamide]",8.03,8.46,8.36,9.10,8.92,8.16,8.77
"CO[C@@H](C)c1ncc(N2CCN(C)CC2)cc1-c1c2c3cc(cc4c3n1CCC4)-c1csc(n1)C[C@H](NC(=O)[C@@H]1C[C@H]1c1cncc(C)c1)C(=O)N1CCC[C@H](N1)C(=O)OCC(C)(C)C2 (atropisomer, axis not shown; (M)) [Example 120, (1R,2R)-N-[(7S,13S)-(20M)-20-[2-[(1S)-1-methoxyethyl]-5-(4-methylpiperazin-1-yl)-3-pyridyl]-17,17-dimethyl-8,14-dioxo-15-oxa-4-thia-9,21,30,31-tetrazahexacyclo[23.3.1.1^2,5.1^9,13.0^19,27.0^21,26]hentriaconta-1 (28),2,5 (31), 19,25 (29),26-hexaen-7-yl]-2-(5-methyl-3-pyridyl)cyclopropanecarboxamide]",7.69,8.85,8.66,9.40,9.05,8.54,8.96
"CO[C@@H](C)c1ncc(N2CCN(CCN3CCCC3=O)CC2)cc1-c1c2c3cc(cc4c3n1CCC4)-c1csc(n1)C[C@H](NC(=O)[C@H]1[C@H](C)[C@@H]1C)C(=O)N1CCC[C@H](N1)C(=O)OCC(C)(C)C2 (atropisomer, axis not shown; (M)) [Example 121, (1r,2R,3S)-N-[(7S,13S)-(20M)-20-[2-[(1S)-1-methoxyethyl]-5-[4-[2-(2-oxopyrrolidin-1-yl)ethyl]piperazin-1-yl]-3-pyridyl]-17,17-dimethyl-8,14-dioxo-15-oxa-4-thia-9,21,30,31-tetrazahexacyclo[23.3.1.1^2,5.1^9,13.0^19,27.0^21,26]hentriaconta-1 (28),2,5 (31), 19,25 (29),26-hexaen-7-yl]-2,3-dimethyl-cyclopropanecarboxamide]",7.89,8.80,8.62,9.52,9.52,8.47,9.05
"CO[C@@H](C)c1ncc(N2CCN(CCC(C)(C)OC)CC2)cc1-c1c2c3cc(cc4c3n1CCC4)-c1csc(n1)C[C@H](NC(=O)[C@H]1[C@H](C)[C@@H]1C)C(=O)N1CCC[C@H](N1)C(=O)OCC(C)(C)C2 (atropisomer, axis not shown; (M)) [Example 123, (1r,2R,3S)-N-[(7S,13S)-(20M)-20-[2-[(1S)-1-methoxyethyl]-5-[4-(3-methoxy-3-methyl-butyl)piperazin-1-yl]-3-pyridyl]-17,17-dimethyl-8,14-dioxo-15-oxa-4-thia-9,21,30,31-tetrazahexacyclo[23.3.1.1^2,5.1^9,13.0^19,27.0^21,26]hentriaconta-1 (28),2,5 (31), 19,25 (29),26-hexaen-7-yl]-2,3-dimethyl-cyclopropanecarboxamide]",7.86,8.52,8.29,9.22,9.22,8.15,9.10
"CO[C@@H](C)c1ncc(N2CCN(C)CC2)cc1-c1c2c3cc(c(F)c4c3n1CCC4)-c1csc(n1)C[C@H](NC(=O)[C@H]1[C@H](C)[C@@H]1C)C(=O)N1CCC[C@H](N1)C(=O)OCC(C)(C)C2 (atropisomer, axis not shown; (M)) [Example 124, (1r,2S,3R)-N-[(7S,13S)-29-fluoro-(20M)-20-[2-[(1S)-1-methoxyethyl]-5-(4-methylpiperazin-1-yl)-3-pyridyl]-17,17-dimethyl-8,14-dioxo-15-oxa-4-thia-9,21,30,31-tetrazahexacyclo[23.3.1.1^2,5.1^9,13.0^19,27.0^21,26]hentriaconta-1 (28),2,5 (31), 19,25 (29),26-hexaen-7-yl]-2,3-dimethyl-cyclopropanecarboxamide]",7.79,8.05,7.86,8.80,9.15,7.80,8.85
